Assay results as given in PubChem BioAssay (NCI).
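Briefly, cells in 96-well plates were exposed to five compound concentrations for 48 h, and endpoints were estimated by linear interpolation. TGI: concentration producing complete growth inhibition.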

Legend:
Assay in all cases: inhibition of tumour cell growth, NCI panel, 48 h
[1] = system: 786-0 renal
[2] = system: A498 renal
[3] = system: A549 NSCLC
[4] = system: ACHN renal
[5] = system: BT-549 breast
[6] = system: CAKI-1 renal
[7] = system: COLO 205 colon
[8] = system: DU-145 prostate
[9] = system: EKVX NSCLC
[10] = system: HCC-2998 colon
[11] = system: HCT-116 colon
[12] = system: HCT-15 colon
[13] = system: HL-60(TB) leukemia
[14] = system: HOP-62 NSCLC
[15] = system: HOP-92 NSCLC
[16] = system: HS 578T breast
[17] = system: HT29 colon
[18] = system: IGROV1 ovarian
[19] = system: K-562 leukemia
[20] = system: KM12 colon
[21] = system: LOX IMVI melanoma
[22] = system: M14 melanoma
[23] = system: MALME-3M melanoma
[24] = system: MCF7 breast
[25] = system: MDA-MB-231 breast
[26] = system: MDA-MB-435
[27] = system: MDA-N
[28] = system: MOLT-4 leukemia
[29] = system: NCI-H226 lung
[30] = system: NCI-H23 lung
[31] = system: NCI-H460 lung
[32] = system: NCI-H522 lung
[33] = system: NCI/ADR-RES ovarian
[34] = system: OVCAR-3 ovarian
[35] = system: OVCAR-4 ovarian
[36] = system: OVCAR-5 ovarian
[37] = system: OVCAR-8 ovarian
[38] = system: PC-3 prostate
[39] = system: RXF 393 renal
[40] = system: SF-268 CNS
[41] = system: SF-295 CNS
[42] = system: SF-539 CNS
[43] = system: SK-MEL-2 melanoma
[44] = system: SK-MEL-28 melanoma
[45] = system: SK-MEL-5 melanoma
[46] = system: SK-OV-3 ovarian
[47] = system: SN12C renal
[48] = system: SNB-19 CNS
[49] = system: SNB-75 CNS
[50] = system: SW-620 colon
[51] = system: T-47D breast
[52] = system: TK-10 renal
[53] = system: U251 CNS
[54] = system: UACC-257 melanoma
[55] = system: UACC-62 melanoma
[56] = system: UO-31 renal

In the case of `CNC(=O)OCc1c2ccncc2c(C)c2c1[nH]c1ccccc12`, the TGI [1] is reported as 14200 nM, the TGI [2] is reported as 673 nM and the TGI [3] is reported as 2580 nM. The TGI [4] was 522 nM, the TGI [5] was 1630 nM and the TGI [6] was 1250 nM. For the same compound, the TGI [7] was 1820 nM, the TGI [8] was 6180 nM and the TGI [9] was 2240 nM. For the same compound, the TGI [10] was 1080 nM, the TGI [11] was 12700 nM and the TGI [12] was 1760 nM. For the same compound, the TGI [13] was 920 nM, the TGI [14] was 5000 nM and the TGI [15] was 16500 nM. The TGI [16] was 3120 nM, the TGI [17] was 1590 nM and the TGI [18] was 1300 nM. It also gave a TGI [19] of over 100000 nM, a TGI [20] of 5190 nM and a TGI [21] of 584 nM. It also gave a TGI [22] of 2950 nM, a TGI [23] of 1240 nM and a TGI [24] of 1240 nM. The TGI [25] was 2870 nM, the TGI [26] was 1580 nM and the TGI [27] was 1730 nM. It also gave a TGI [28] of over 100000 nM, a TGI [29] of 1250 nM and a TGI [30] of 822 nM. For the same compound, the TGI [31] was 1810 nM, the TGI [32] was 272 nM and the TGI [33] was 2300 nM. It also gave a TGI [34] of 1740 nM, a TGI [35] of 1380 nM and a TGI [36] of 1780 nM. It also gave a TGI [37] of 2160 nM, a TGI [38] of 20700 nM and a TGI [39] of 170 nM. The TGI [40] was 1650 nM, the TGI [41] was 4660 nM and the TGI [42] was 784 nM. It also gave a TGI [43] of 548 nM, a TGI [44] of 2250 nM and a TGI [45] of 773 nM. It also gave a TGI [46] of 1780 nM, a TGI [47] of 1940 nM and a TGI [48] of 7980 nM. The TGI [49] was 1170 nM, the TGI [50] was 2380 nM and the TGI [51] was 9610 nM. The TGI [52] was 968 nM, the TGI [53] was 1800 nM and the TGI [54] was 2050 nM. For the same compound, the TGI [55] was 869 nM and the TGI [56] was 966 nM.
